Data reported in PubChem BioAssay (NCI).
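Tested at 5 concentrations; 48 h exposure; 96-well plates; endpoints linearly interpolated, else capped at highest concentration. TGI marks complete inhibition of growth.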

Tests used:
Experiment in all cases: growth of human tumour cells (NCI), 48 h
SF-539 CNS = tested on: SF-539 CNS
MDA-MB-231 breast = tested on: MDA-MB-231 breast
BT-549 breast = tested on: BT-549 breast
RXF 393 renal = tested on: RXF 393 renal
HL-60(TB) leukemia = tested on: HL-60(TB) leukemia
EKVX NSCLC = tested on: EKVX NSCLC
MCF7 breast = tested on: MCF7 breast
OVCAR-4 ovarian = tested on: OVCAR-4 ovarian
KM12 colon = tested on: KM12 colon
SF-268 CNS = tested on: SF-268 CNS
SK-MEL-2 melanoma = tested on: SK-MEL-2 melanoma
OVCAR-8 ovarian = tested on: OVCAR-8 ovarian
HCT-116 colon = tested on: HCT-116 colon
UO-31 renal = tested on: UO-31 renal
OVCAR-5 ovarian = tested on: OVCAR-5 ovarian
U251 CNS = tested on: U251 CNS
UACC-62 melanoma = tested on: UACC-62 melanoma
KM20L2 colon = tested on: KM20L2 colon
DMS 114 small cell lung = tested on: DMS 114 small cell lung

CCOc1cc(C2SCC(=O)N2c2ccc3c(c2)Oc2c(Cl)c4c(c(Cl)c2=N3)Oc2cc(N3C(=O)CSC3c3ccc(O)c(OCC)c3)ccc2N=4)ccc1O (configuration not stated)
TGI (SF-539 CNS): 28.2 µM | TGI (MDA-MB-231 breast): > 100 µM | TGI (BT-549 breast): > 100 µM | TGI (RXF 393 renal): 58.9 µM | TGI (HL-60(TB) leukemia): > 100 µM | TGI (EKVX NSCLC): > 100 µM | TGI (MCF7 breast): > 100 µM | TGI (OVCAR-4 ovarian): > 100 µM | TGI (KM12 colon): > 100 µM | TGI (SF-268 CNS): > 100 µM | TGI (SK-MEL-2 melanoma): 93.9 µM | TGI (OVCAR-8 ovarian): > 100 µM | TGI (HCT-116 colon): 41.4 µM | TGI (UO-31 renal): > 100 µM | TGI (OVCAR-5 ovarian): > 100 µM | TGI (U251 CNS): > 100 µM

Cc1ccc(N=C2OP(=O)(Nc3ccc(C)cc3)Oc3ccccc32)cc1 (configuration not stated)
TGI (SF-539 CNS): > 100 µM | TGI (UACC-62 melanoma): > 100 µM | TGI (MDA-MB-231 breast): > 100 µM | TGI (BT-549 breast): > 100 µM | TGI (RXF 393 renal): > 100 µM | TGI (HL-60(TB) leukemia): > 100 µM | TGI (EKVX NSCLC): > 100 µM | TGI (MCF7 breast): > 100 µM | TGI (OVCAR-4 ovarian): > 100 µM | TGI (KM12 colon): > 100 µM | TGI (SF-268 CNS): > 100 µM | TGI (SK-MEL-2 melanoma): > 100 µM | TGI (OVCAR-8 ovarian): > 100 µM | TGI (HCT-116 colon): > 100 µM | TGI (UO-31 renal): > 100 µM | TGI (OVCAR-5 ovarian): > 100 µM | TGI (U251 CNS): > 100 µM

Cc1c(C(=O)Nc2ccccc2)nnn1-c1ccnc2cc(C(F)(F)F)ccc12
TGI (SF-539 CNS): > 100 µM | TGI (UACC-62 melanoma): > 100 µM | TGI (MDA-MB-231 breast): > 100 µM | TGI (BT-549 breast): > 100 µM | TGI (RXF 393 renal): > 100 µM | TGI (HL-60(TB) leukemia): 77.7 µM | TGI (EKVX NSCLC): > 100 µM | TGI (MCF7 breast): > 100 µM | TGI (OVCAR-4 ovarian): > 100 µM | TGI (KM12 colon): > 100 µM | TGI (SF-268 CNS): > 100 µM | TGI (SK-MEL-2 melanoma): > 100 µM | TGI (OVCAR-8 ovarian): > 100 µM | TGI (HCT-116 colon): > 100 µM | TGI (UO-31 renal): > 100 µM | TGI (OVCAR-5 ovarian): > 100 µM | TGI (U251 CNS): > 100 µM

Cc1cccc2c(NCCN(C)C)c3cccc(C(=O)NCCN(C)C)c3nc12
TGI (SF-539 CNS): 0.68 µM | TGI (UACC-62 melanoma): 0.311 µM | TGI (MDA-MB-231 breast): 0.728 µM | TGI (BT-549 breast): 4.55 µM | TGI (RXF 393 renal): 2.54 µM | TGI (HL-60(TB) leukemia): 0.637 µM | TGI (EKVX NSCLC): 4.29 µM | TGI (MCF7 breast): 2.85 µM | TGI (OVCAR-4 ovarian): > 100 µM | TGI (KM12 colon): 1.04 µM | TGI (SF-268 CNS): 2.85 µM | TGI (SK-MEL-2 melanoma): 1.13 µM | TGI (OVCAR-8 ovarian): 10.2 µM | TGI (HCT-116 colon): 4.87 µM | TGI (UO-31 renal): 1.63 µM | TGI (OVCAR-5 ovarian): 14.4 µM | TGI (U251 CNS): 3.82 µM

COC(=O)/C(=N\NC(N)=O)C(C#N)c1ccccc1 (configuration not stated)
TGI (SF-539 CNS): > 100 µM | TGI (UACC-62 melanoma): > 100 µM | TGI (RXF 393 renal): > 100 µM | TGI (HL-60(TB) leukemia): > 100 µM | TGI (KM20L2 colon): > 100 µM | TGI (EKVX NSCLC): > 100 µM | TGI (OVCAR-4 ovarian): > 100 µM | TGI (KM12 colon): > 100 µM | TGI (SF-268 CNS): > 100 µM | TGI (SK-MEL-2 melanoma): > 100 µM | TGI (OVCAR-8 ovarian): > 100 µM | TGI (DMS 114 small cell lung): > 100 µM | TGI (HCT-116 colon): > 100 µM | TGI (UO-31 renal): > 100 µM | TGI (OVCAR-5 ovarian): > 100 µM | TGI (U251 CNS): > 100 µM

COCN1C(=N)C(C(=O)OC(C)(C)C)=C2C=C(O)C=CC21C (configuration not stated)
TGI (SF-539 CNS): 33.6 µM | TGI (UACC-62 melanoma): 29.1 µM | TGI (MDA-MB-231 breast): 29 µM | TGI (BT-549 breast): 12.8 µM | TGI (RXF 393 renal): 19.3 µM | TGI (HL-60(TB) leukemia): 83.3 µM | TGI (EKVX NSCLC): 37.9 µM | TGI (MCF7 breast): 22.9 µM | TGI (OVCAR-4 ovarian): 26.6 µM | TGI (KM12 colon): 30.5 µM | TGI (SF-268 CNS): 29.5 µM | TGI (SK-MEL-2 melanoma): 31.9 µM | TGI (OVCAR-8 ovarian): 55.7 µM | TGI (HCT-116 colon): 20.7 µM | TGI (UO-31 renal): 26.4 µM | TGI (OVCAR-5 ovarian): 32.5 µM | TGI (U251 CNS): 30.6 µM

CN(CCNC(=O)c1nn(-c2ccc(Cl)cc2Cl)c2c1Cc1ccccc1-2)CCNC(=O)c1nn(-c2ccc(Cl)cc2Cl)c2c1Cc1ccccc1-2
TGI (SF-539 CNS): 3.68 µM | TGI (UACC-62 melanoma): 3.48 µM | TGI (MDA-MB-231 breast): 8.88 µM | TGI (BT-549 breast): 38.2 µM | TGI (RXF 393 renal): 4.54 µM | TGI (HL-60(TB) leukemia): 3.57 µM | TGI (EKVX NSCLC): > 100 µM | TGI (MCF7 breast): 8.31 µM | TGI (OVCAR-4 ovarian): > 20 µM | TGI (KM12 colon): > 100 µM | TGI (SF-268 CNS): > 100 µM | TGI (SK-MEL-2 melanoma): 4.32 µM | TGI (OVCAR-8 ovarian): 4.44 µM | TGI (HCT-116 colon): 4.45 µM | TGI (UO-31 renal): 7.81 µM | TGI (OVCAR-5 ovarian): > 87.5 µM | TGI (U251 CNS): 7.27 µM
